Values after ≈ are worked out from the molar mass of the structure shown. Bridge positions count the residues as written; N and C are the ends. Square brackets hold non-standard residues; d marks the D form. Peptide text beside a SMILES is read from it. * marks the point of attachment. Decanoyl(3R-OH) = CCCCCCC[C@@H](O)CC(=O)*; X1 = CC[C@H](C)CCCCC(=O)*; dDab = NCC[C@@H](N)C(=O)O; Dab = NCC[C@H](N)C(=O)O
What was measured:
Acinetobacter baumannii [1] = assay: Antibacterial activity against carbapenem resistant Acinetobacter baumannii clinical isolate 19-8 assessed as inhibition of bacterial growth incubated for 18 to 24 hrs by broth microdilution method; assay type: functional; details: time 18-24 hrs
Acinetobacter baumannii [2] = assay: Antibacterial activity against oxacillinase-27 producing Acinetobacter baumannii NCTC 13304 assessed as inhibition of bacterial growth incubated for 18 to 24 hrs by broth microdilution method; assay type: functional; details: time 18-24 hrs
Staphylococcus aureus [3] = assay: Antibacterial activity against Staphylococcus aureus ATCC 29213 assessed as inhibition of bacterial growth incubated for 18 to 24 hrs by broth microdilution method; assay type: functional; details: time 18-24 hrs
Escherichia coli [4] = assay: Antibacterial activity against Escherichia coli clinical isolate 19-2 assessed as inhibition of bacterial growth incubated for 18 to 24 hrs by broth microdilution method; assay type: functional; details: time 18-24 hrs
Escherichia coli [5] = assay: Antibacterial activity against KPC producing Escherichia coli ATCC BAA-2340 assessed as inhibition of bacterial growth incubated for 18 to 24 hrs by broth microdilution method; assay type: functional; details: time 18-24 hrs
Klebsiella pneumoniae [6] = assay: Antibacterial activity against KPC producing Klebsiella pneumoniae ATCC BAA-1705 assessed as inhibition of bacterial growth incubated for 18 to 24 hrs by broth microdilution method; assay type: functional; details: time 18-24 hrs
Escherichia coli [7] = assay: Antibacterial activity against Escherichia coli ATCC 25922 assessed as inhibition of bacterial growth incubated for 18 to 24 hrs by broth microdilution method; assay type: functional; details: time 18-24 hrs
Escherichia coli [8] = assay: Antibacterial activity against Escherichia coli NCTC 13353 assessed as inhibition of bacterial growth incubated for 18 to 24 hrs by broth microdilution method; assay type: functional; details: time 18-24 hrs
Escherichia coli [9] = assay: Antibacterial activity against Escherichia coli; assay type: functional
Klebsiella pneumoniae [10] = assay: Antibacterial activity against carbapenem resistant Klebsiella pneumoniae clinical isolate 19-15 assessed as inhibition of bacterial growth incubated for 18 to 24 hrs by broth microdilution method; assay type: functional; details: time 18-24 hrs
Pseudomonas aeruginosa [11] = assay: Antibacterial activity against Pseudomonas aeruginosa clinical isolate 19-1 assessed as inhibition of bacterial growth incubated for 18 to 24 hrs by broth microdilution method; assay type: functional; details: time 18-24 hrs
Acinetobacter baumannii [12] = assay: Antibacterial activity against Acinetobacter baumannii; assay type: functional
[13] = test system: Staphylococcus epidermidis; assay: Antibacterial activity against methicillin resistant Staphylococcus epidermidis clinical isolate 19-6 assessed as inhibition of bacterial growth incubated for 18 to 24 hrs by broth microdilution method; assay type: functional; details: time 18-24 hrs
Escherichia coli [14] = assay: Antibacterial activity against Escherichia coli ATCC BAA-2523 assessed as inhibition of bacterial growth incubated for 18 to 24 hrs by broth microdilution method; assay type: functional; details: time 18-24 hrs
Pseudomonas aeruginosa [15] = assay: Antibacterial activity against carbapenem resistant Pseudomonas aeruginosa clinical isolate 19-3 assessed as inhibition of bacterial growth incubated for 18 to 24 hrs by broth microdilution method; assay type: functional; details: time 18-24 hrs
Pseudomonas aeruginosa [16] = assay: Antibacterial activity against Pseudomonas aeruginosa; assay type: functional
Klebsiella pneumoniae [17] = assay: Antibacterial activity against Klebsiella pneumoniae; assay type: functional
Pseudomonas aeruginosa [18] = assay: Antibacterial activity against carbapenem resistant Pseudomonas aeruginosa clinical isolate 17-1 assessed as inhibition of bacterial growth incubated for 18 to 24 hrs by broth microdilution method; assay type: functional; details: time 18-24 hrs
Pseudomonas aeruginosa [19] = assay: Antibacterial activity against Pseudomonas aeruginosa ATCC 27853 assessed as inhibition of bacterial growth incubated for 18 to 24 hrs by broth microdilution method; assay type: functional; details: time 18-24 hrs
[20] = test system: Staphylococcus epidermidis; assay: Antibacterial activity against methicillin resistant Staphylococcus epidermidis clinical isolate 19-5 assessed as inhibition of bacterial growth incubated for 18 to 24 hrs by broth microdilution method; assay type: functional; details: time 18-24 hrs
Staphylococcus aureus [21] = assay: Antibacterial activity against methicillin resistant Staphylococcus aureus ATCC 33591 assessed as inhibition of bacterial growth incubated for 18 to 24 hrs by broth microdilution method; assay type: functional; details: time 18-24 hrs
Klebsiella pneumoniae [22] = assay: Antibacterial activity against carbapenem resistant Klebsiella pneumoniae clinical isolate 19-17 assessed as inhibition of bacterial growth incubated for 18 to 24 hrs by broth microdilution method; assay type: functional; details: time 18-24 hrs
[23] = Plasma protein binding in human at 2 uM incubated for 6 hrs by equilibrium dialysis based LC-MS/MS analysis; assay type: ADME, cell-free; details: read-out: PPB (converted)
[24] = test system: Staphylococcus epidermidis; assay: Antibacterial activity against Staphylococcus epidermidis; assay type: functional
[25] = Cytotoxicity against human HK-2 cells assessed as inhibition of cell growth incubated for 72 hrs by CCK-8 assay; assay type: toxicity, cell-based
[26] = Selectivity index, ratio of IC50 for cytotoxicity against human HK-2 cells to MIC for antibacterial activity against Escherichia coli ATCC BAA-2523; assay type: toxicity, cell-based
Candida albicans = assay: Antifungal activity against Candida albicans; assay type: functional
Staphylococcus aureus [27] = assay: Antibacterial activity against Staphylococcus aureus; assay type: functional

SMILES | MIC (Acinetobacter baumannii [1]) [mg/L] | MIC (Acinetobacter baumannii [2]) [mg/L] | MIC (Staphylococcus aureus [3]) [mg/L] | MIC (Escherichia coli [4]) [mg/L] | MIC (Escherichia coli [5]) [mg/L] | MIC (Klebsiella pneumoniae [6]) [mg/L] | MIC (Escherichia coli [8]) [mg/L] | MIC (Escherichia coli [9]) [mg/L] | MIC (Klebsiella pneumoniae [10]) [mg/L] | MIC (Pseudomonas aeruginosa [11]) [mg/L] | MIC (Acinetobacter baumannii [12]) [mg/L] | MIC [13] [mg/L] | MIC (Escherichia coli [14]) [mg/L] | MIC (Pseudomonas aeruginosa [15]) [mg/L] | MIC (Pseudomonas aeruginosa [16]) [mg/L] | MIC (Klebsiella pneumoniae [17]) [mg/L] | MIC (Pseudomonas aeruginosa [18]) [mg/L] | MIC (Pseudomonas aeruginosa [19]) [mg/L] | MIC [20] [mg/L] | MIC (Staphylococcus aureus [21]) [mg/L] | further results
CC[C@H](C)CCCCC(=O)N[C@@H](CCN)C(=O)N[C@H](C(=O)N[C@@H](CCN)C(=O)N[C@H]1CCNC(=O)[C@H]([C@@H](C)O)NC(=O)[C@H](CCN)NC(=O)[C@H](CCN)NC(=O)[C@H](CC(C)C)NC(=O)[C@@H](Cc2ccccc2)NC(=O)[C@H](CCN)NC1=O)[C@@H](C)O (X1-[Dab]T[Dab][Dab][Dab][dF]L[Dab][Dab]T; lactam 4-C) | ≤ 0.06 | ≤ 0.06 | > 64 | ≤ 0.06 | ≤ 0.06 | ≤ 0.06 | 0.5 (≈ 0.415 µM) | 0.05 (≈ 0.0415 µM) | 0.125 (≈ 0.104 µM) | 0.25 (≈ 0.208 µM) | 1 (≈ 0.831 µM) | 16 (≈ 13.3 µM) | < 0.06 | 0.125 (≈ 0.104 µM) | 0.2 (≈ 0.166 µM) | 1 (≈ 0.831 µM) | 0.25 (≈ 0.208 µM) | 0.5 (≈ 0.415 µM) | 4 (≈ 3.32 µM) | > 64 | MIC (Escherichia coli [7]): 0.25 mg/L (≈ 0.208 µM); MIC (Klebsiella pneumoniae [22]): 0.25 mg/L (≈ 0.208 µM)
CCCCCCC[C@@H](O)CC(=O)N[C@H](CCN)C(=O)N[C@H]1CCNC(=O)[C@H](CC(C)C)NC(=O)[C@H](CCN)NC(=O)[C@H](CCN)NC(=O)[C@H](CC(C)C)NC(=O)[C@@H](Cc2ccccc2)NC(=O)[C@H](CCN)NC1=O ({Decanoyl(3R-OH)}-[dDab][Dab][Dab][dF]L[Dab][Dab]L; lactam 2-C) | 4 (≈ 3.83 µM) | 8 (≈ 7.66 µM) | 16 (≈ 15.3 µM) | 16 (≈ 15.3 µM) | 2 (≈ 1.92 µM) | 8 (≈ 7.66 µM) | 8 (≈ 7.66 µM) | 0.1 (≈ 0.0958 µM) | 8 (≈ 7.66 µM) | 2 (≈ 1.92 µM) | 4 (≈ 3.83 µM) | 4 (≈ 3.83 µM) | 8 (≈ 7.66 µM) | 4 (≈ 3.83 µM) | 0.4 (≈ 0.383 µM) | 0.78 (≈ 0.747 µM) | 2 (≈ 1.92 µM) | 2 (≈ 1.92 µM) | 2 (≈ 1.92 µM) | 16 (≈ 15.3 µM) | fraction unbound at 6 h, 2 µM [23]: 0.0805; MIC [24]: 0.6 mg/L (≈ 0.575 µM); IC50 at 72 h [25]: 14.2 mg/L (≈ 13.6 µM); selectivity ratio [26]: 1.8; MIC (Candida albicans): 4.7 mg/L (≈ 4.5 µM); MIC (Staphylococcus aureus [27]): 3.1 mg/L (≈ 2.97 µM); MIC (Klebsiella pneumoniae [22]): 8 mg/L (≈ 7.66 µM)
CCCCCCC[C@@H](O)CC(=O)N[C@H](CCN)C(=O)N[C@H]1CCNC(=O)[C@H](CC(C)C)NC(=O)[C@H](CCN)NC(=O)[C@H](CCN)NC(=O)[C@H](CC(C)C)NC(=O)[C@@H](CC(C)C)NC(=O)[C@H](CCN)NC1=O | 4 (≈ 3.96 µM) | 8 (≈ 7.92 µM) | > 64 | 16 (≈ 15.8 µM) | 8 (≈ 7.92 µM) | 16 (≈ 15.8 µM) | 16 (≈ 15.8 µM) | 0.1 (≈ 0.099 µM) | 16 (≈ 15.8 µM) | 2 (≈ 1.98 µM) | 4 (≈ 3.96 µM) | 16 (≈ 15.8 µM) | 16 (≈ 15.8 µM) | 4 (≈ 3.96 µM) | 0.4 (≈ 0.396 µM) | 0.78 (≈ 0.772 µM) | 2 (≈ 1.98 µM) | 1 (≈ 0.99 µM) | 2 (≈ 1.98 µM) | > 64 | fraction unbound at 6 h, 2 µM [23]: 0.0216; MIC [24]: 0.6 mg/L (≈ 0.594 µM); IC50 at 72 h [25]: 60.7 mg/L (≈ 60.1 µM); selectivity ratio [26]: 3.8; MIC (Candida albicans): 4.7 mg/L (≈ 4.65 µM); MIC (Staphylococcus aureus [27]): 3.1 mg/L (≈ 3.07 µM); MIC (Klebsiella pneumoniae [22]): 16 mg/L (≈ 15.8 µM)

— ChEMBL document CHEMBL5380795, “Design, Synthesis, and Bioactivity Investigation of Cyclic Lipopeptide Antibiotics Containing Eight to Nine Amino Acids” (J Med Chem, 2023)
